Measurements as given in publication PMC8880268, “Magnolol and Luteolin Inhibition of α-Glucosidase Activity: Kinetics and Type of Interaction Detected by In Vitro and In Silico Studies” (Pharmaceuticals, 2022).
Several values for one entry are separate records, joined by “and”; a condition that tells them apart may be missing. Identical values can stand only once. Entries after “also recorded” stand apart in the source; their conditions may differ. Like-named read-outs stand apart in the source and are kept apart here.

What was measured:
[1] = target: T1, α-glucosidase (Saccharomyces cerevisiae, UniProt P38158); experiment: Inactivation kinetics, time course of α-glucosidase activity; format: biochemical; conditions: enzyme 0.075 µM, pNPG 2 mM
T1 construct: purchased Merck KGaA, Darmstadt, Germany
T1 sequence (P38158 whole entry): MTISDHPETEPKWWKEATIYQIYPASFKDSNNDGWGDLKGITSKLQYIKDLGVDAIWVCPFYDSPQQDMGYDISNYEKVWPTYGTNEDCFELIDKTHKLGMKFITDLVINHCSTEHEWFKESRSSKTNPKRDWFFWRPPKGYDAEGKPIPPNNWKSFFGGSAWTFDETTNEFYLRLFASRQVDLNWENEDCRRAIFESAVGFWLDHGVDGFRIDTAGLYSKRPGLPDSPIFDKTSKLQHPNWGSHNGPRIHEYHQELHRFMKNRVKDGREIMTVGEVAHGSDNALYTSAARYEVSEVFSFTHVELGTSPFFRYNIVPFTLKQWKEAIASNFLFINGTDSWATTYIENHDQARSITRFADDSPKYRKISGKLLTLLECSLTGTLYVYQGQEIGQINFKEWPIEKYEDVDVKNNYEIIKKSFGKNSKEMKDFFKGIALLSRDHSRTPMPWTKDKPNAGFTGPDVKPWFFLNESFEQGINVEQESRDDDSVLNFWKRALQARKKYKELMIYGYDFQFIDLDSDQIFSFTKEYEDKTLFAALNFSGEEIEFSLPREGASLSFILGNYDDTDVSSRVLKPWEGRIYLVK
Description: The enzyme and substrate concentrations were 0.075 µM and 2 mM, respectively.

[2] = system: α-glucosidase; conditions: cited from earlier work
[3] = target: T1, α-glucosidase; experiment: Yeast α-glucosidase inhibitory assay (pNPG substrate, absorbance 405 nm); format: biochemical; conditions: for IC50: 2 mM pNPG
Description: α-Glucosidase inhibitory activity was determined according to a previous method. Briefly, 0.1 mM PBS (pH 6.8) was used to dissolve α-glucosidase and pNPG. In detail, 80 μL of PBS or 80 μL of test sample were added to 96-well plates. Successively, 20 μL of enzyme (0.025–0.125 µM) were added to each well. Magnolol (10–100 μM) and luteolin (5–50 μM) were prepared in DMSO (<1% v/v). […] Each sample was incubated with α-glucosidase for 10 min at 37 °C. The reaction started by adding 200 μL of pNPG (2 mM). The absorbance values were detected at 405 nm for 60 min, using a PerkinElmer Victor Nivo microplate spectrophotometer (Waltham, MA, USA). The α-glucosidase activity in the absence of inhibitors was defined as 100%. The half-maximal inhibitory concentration (IC50) was estimated by plot of relative enzymatic activity vs. inhibitor concentration.

[4] = target: T1, α-glucosidase; experiment: Fluorescence quenching analysis and thermodynamic parameters; format: binding; conditions: for Ksv (Stern–Volmer quenching constant): pH 6.8, α-glucosidase 0.35 µM; for Kd: read-out: Ka (binding constant) (converted)
Description: The interaction of inhibitors with α-glucosidase was studied using the fluorescence quenching method. […] Measurements were made in the emission range of 300–450 nm, with an excitation of 280 nm, after 10 min of stabilization. The fluorescent spectra of α-glucosidase (0.35 µM) and each inhibitor (0–1.0 µM) were carried out at three different temperatures (298, 304, and 310 K) and the bandwidths were set at 5 nm for both emission and excitation slits. For each sample, three fluorescence spectra were acquired, and the blank was subtracted. The compound quenching mechanism was assessed using the Stern–Volmer equation: F0 / F = 1 + Ksv[Q] = 1 + Kq^.τo[Q], where F0 and F are the fluorescence measure in absence and in presence of different concentrations of quencher, respectively; Ksv is the Stern–Volmer quenching constant; Kq is the coefficient of quencher rate coefficient; τ0 is the life time of the excited state; and [Q] is the concentration of the quencher.
Further elaboration of the equilibrium within the free and bound molecules can be achieved through the analysis of the fluorescence emission data utilizing the following equation: log (F0 − F) / F = log Ka + n log [Q], which obtains the binding constant (Ka) and the number of binding sites per protein (n) for the enzyme-inhibitor system.
Thermodynamic spontaneity is an important factor in the study of protein-ligand interaction. A system tends not only toward a lower energy state (enthalpy, ΔH), but also according to a state of disorder (entropy, ΔS). Thermodynamic parameters were obtained according to the Van ’t Hoff equation and the plot of “log Ka vs. 1/T”. The trade-off between enthalpy (ΔH°) and entropy (ΔS°) is used to obtain the standard free energy variation (ΔG°).

[5] = target: T1, α-glucosidase; experiment: Kinetic analysis of yeast α-glucosidase inhibition (Michaelis–Menten and Lineweaver–Burk plots); format: biochemical; conditions: for Inhibitor Potency (relative to acarbose): from Ki values; for Vmax of α-glucosidase: converted using the Lambert–Beer relationship
Description: The type of enzyme inhibition exerted by inhibitors was evaluated from kinetic studies using different substrate concentrations (0.25–2.5 mM pNPG) applying Michaelis–Menten and Lineweaver–Burk plots. Inhibition constants (Ki) were determined by plots of the Y-intercept of the Lineweaver–Burk plot vs. inhibitor concentration.

[6] = target: T1, α-glucosidase; parameters: method as in PMID 24333230; conditions: ref 17; cited from earlier work
[7] = target: T1, α-glucosidase; experiment: Synchronous fluorescence spectra; conditions: pH 6.8, 298 K
Excerpt: The application of this method allows the identification of conformational changes in proteins according to the spectroscopic behavior of the tyrosine and tryptophan residues. Synchronous fluorescence spectra were collected in the emission range of 260–320 nm. The difference between excitation and emission wavelength (Δλ) was established at 15 nm (tyrosine residues) or at 60 nm (tryptophan residues).

[8] = 298–310 K, Van ’t Hoff equation

Compound: O=c1cc(-c2ccc(O)c(O)c2)oc2cc(O)cc(O)c12 [Luteolin, 3’,4’,5,7-tetrahydroxyflavone]
- Inactivation rate constant K ([1]; inhibitor 5 µM): 2.67 ± 0.08 10^−4 s^−1
- Inactivation rate constant K ([1]; inhibitor 10 µM): 2.78 ± 0.08 10^−4 s^−1
- Inactivation rate constant K ([1]; inhibitor 25 µM): 2.81 ± 0.03 10^−4 s^−1
- Inactivation rate constant K ([1]; inhibitor 40 µM): 2.82 ± 0.04 10^−4 s^−1
- Inactivation rate constant K ([1]; inhibitor 50 µM): 2.84 ± 0.01 10^−4 s^−1
- times more potent than acarbose ([2]; first of 'respectively', from literature IC50 values ref 18): 13 times
- Ki ([2]; ref 4): 29 µM and 38 µM
- IC50 ([2]; ref 6): 46 µM
- Ki ([2]; ref 17): 140 µM
- IC50 ([2]; ref 18): 13.1 µM
- times more potent than acarbose ([2]; second of 'respectively', from literature IC50 values ref 6): 17 times
- reversibility of inhibition ([3]; plots v vs. [α-glucosidase] at different inhibitor concentrations): reversible inhibition
- IC50 ([3]; α-glucosidase 0.025 × 10^−6 M, read-out: IC50): 14 ± 10.5 µM
- IC50 ([3]; α-glucosidase 0.05 × 10^−6 M, read-out: IC50): 21.6 ± 11.7 µM
- IC50 ([3]; α-glucosidase 0.05 × 10^−6 M, read-out: −Log IC50 (converted)): 21.9 µM
- IC50 ([3]; α-glucosidase 0.075 × 10^−6 M, read-out: IC50): 32.3 ± 11.7 µM
- IC50 ([3]; α-glucosidase 0.125 × 10^−6 M, read-out: IC50): 59.4 ± 12.3 µM
- Kq (bimolecular quenching constant) ([4]; 298 K): 23.22 ± 0.159 10^13 M^−1 s^−1
- n (number of binding sites) ([4]; 298 K): 1.10
- ΔG° (free energy change) ([4]; 298 K, Van ’t Hoff equation): -0.547 kcal/mol
- Ksv (Stern–Volmer quenching constant) ([4]; 298 K): 23.22 ± 0.16 10^5 M^−1
- Kd ([4]; 298 K): 0.402 µM
- ΔH° (enthalpy change) [4, 8]: -2.18 kcal/mol
- ∆S° (entropy change) [4, 8]: −22.95 J mol^−1K^−1
- Kq (bimolecular quenching constant) ([4]; 304 K): 21.73 ± 0.141 10^13 M^−1 s^−1
- n (number of binding sites) ([4]; 304 K): 1.28
- ΔG° (free energy change) ([4]; 304 K, Van ’t Hoff equation): -0.514 kcal/mol
- Ksv (Stern–Volmer quenching constant) ([4]; 304 K): 21.73 ± 0.14 10^5 M^−1
- Kd ([4]; 304 K): 0.417 µM
- Kq (bimolecular quenching constant) ([4]; 310 K): 18.68 ± 0.120 10^13 M^−1 s^−1
- n (number of binding sites) ([4]; 310 K): 1.34
- ΔG° (free energy change) ([4]; 310 K, Van ’t Hoff equation): -0.48 kcal/mol
- Ksv (Stern–Volmer quenching constant) ([4]; 310 K): 18.68 ± 0.12 10^5 M^−1
- Kd ([4]; 310 K): 0.464 µM
- fluorescence quenching mechanism ([4]; based on Ksv and Kq values): static quenching mechanism
- number of binding sites ([4]; no temperature stated): approximately 1
- Ki’ (binding constant of the inhibitor to the substrate-enzyme complex) ([5]; 0.075 µM α-glucosidase): 35.4 µM
- Ki ([5]; 0.075 µM α-glucosidase, secondary plots of slope versus [I], read-out: Ki (binding constant of the inhibitor to the free enzyme)): 34.2 µM
- type of inhibition ([5]; Michaelis–Menten and Lineweaver–Burk plots): non-competitive inhibition; also recorded: non-competitive reversible inhibitor
- Inhibitor Potency (relative to acarbose) [5]: 10.4
- Inhibitor Potency (relative to acarbose) ([5]; listed as luteolin): ≥ 10
- Kcat of α-glucosidase ([5]; inhibitor 5 µM, 0.075 µM α-glucosidase): 2.95 ± 0.12 s⁻¹
- Kcat of α-glucosidase ([5]; inhibitor 10 µM, 0.075 µM α-glucosidase): 2.65 ± 0.13 s⁻¹
- Kcat of α-glucosidase ([5]; inhibitor 25 µM, 0.075 µM α-glucosidase): 2.02 ± 0.12 s⁻¹
- Vmax of α-glucosidase ([5]; inhibitor 25 µM): 9.10 ± 0.50 µM/min
- Kcat of α-glucosidase ([5]; inhibitor 40 µM, 0.075 µM α-glucosidase): 1.78 ± 0.12 s⁻¹
- Vmax of α-glucosidase ([5]; inhibitor 40 µM): 8.00 ± 0.50 µM/min
- Kcat of α-glucosidase ([5]; inhibitor 50 µM, 0.075 µM α-glucosidase): 1.41 ± 0.11 s⁻¹
- Vmax of α-glucosidase ([5]; inhibitor 50 µM): 6.34 ± 0.60 µM/min
- distance between inhibitor and α-glucosidase [6]: 4.56 nm
- shift of synchronous fluorescence maximum ([7]; ∆λ = 15 nm (tyrosine residues)): blue shift from 286 to 283
- shift of synchronous fluorescence maximum ([7]; ∆λ = 60 nm (tryptophan residues)): no modification
